# Assay results as given in PubChem BioAssay (NCI).
#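 Exposure lasted 48 hours, with cells grown in 96-well plates and compounds tested at five concentrations. GI50 is the concentration that inhibits growth by half. TGI is the concentration that stops growth completely.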
# How the values were obtained:
# Assay in all cases: DTP human tumour cell line panel, 48 h
# BT-549 breast = system: BT-549 breast
# SK-MEL-28 melanoma = system: SK-MEL-28 melanoma
# NCI/ADR-RES ovarian = system: NCI/ADR-RES ovarian
# PC-3 prostate = system: PC-3 prostate
# HCT-116 colon = system: HCT-116 colon
# SK-MEL-2 melanoma = system: SK-MEL-2 melanoma
# CAKI-1 renal = system: CAKI-1 renal
# MDA-MB-231 breast = system: MDA-MB-231 breast
# UACC-257 melanoma = system: UACC-257 melanoma
# SK-OV-3 ovarian = system: SK-OV-3 ovarian
# NCI-H460 lung = system: NCI-H460 lung
# SF-539 CNS = system: SF-539 CNS
# TK-10 renal = system: TK-10 renal
# OVCAR-5 ovarian = system: OVCAR-5 ovarian
# HOP-62 NSCLC = system: HOP-62 NSCLC
# HOP-92 NSCLC = system: HOP-92 NSCLC
# SW-620 colon = system: SW-620 colon
# RXF 393 renal = system: RXF 393 renal
# OVCAR-4 ovarian = system: OVCAR-4 ovarian
# OVCAR-3 ovarian = system: OVCAR-3 ovarian
# DU-145 prostate = system: DU-145 prostate
# 786-0 renal = system: 786-0 renal
# HCC-2998 colon = system: HCC-2998 colon
# HS 578T breast = system: HS 578T breast
# UACC-62 melanoma = system: UACC-62 melanoma
# COLO 205 colon = system: COLO 205 colon
# OVCAR-8 ovarian = system: OVCAR-8 ovarian
# MDA-MB-468 breast = system: MDA-MB-468 breast
# NCI-H522 lung = system: NCI-H522 lung
# MOLT-4 leukemia = system: MOLT-4 leukemia
# K-562 leukemia = system: K-562 leukemia
# MDA-MB-435 = system: MDA-MB-435
# SNB-75 CNS = system: SNB-75 CNS
# HL-60(TB) leukemia = system: HL-60(TB) leukemia
# U251 CNS = system: U251 CNS
# LOX IMVI melanoma = system: LOX IMVI melanoma
# UO-31 renal = system: UO-31 renal
# CCRF-CEM leukemia = system: CCRF-CEM leukemia
# EKVX NSCLC = system: EKVX NSCLC
# A498 renal = system: A498 renal
# KM12 colon = system: KM12 colon
# M14 melanoma = system: M14 melanoma
# SNB-19 CNS = system: SNB-19 CNS
# RPMI-8226 leukemia = system: RPMI-8226 leukemia
# SF-268 CNS = system: SF-268 CNS
# T-47D breast = system: T-47D breast
# ACHN renal = system: ACHN renal
# IGROV1 ovarian = system: IGROV1 ovarian
# MCF7 breast = system: MCF7 breast
# A549 NSCLC = system: A549 NSCLC
# SK-MEL-5 melanoma = system: SK-MEL-5 melanoma
# HT29 colon = system: HT29 colon
# SF-295 CNS = system: SF-295 CNS
# HCT-15 colon = system: HCT-15 colon
# SN12C renal = system: SN12C renal
# MALME-3M melanoma = system: MALME-3M melanoma
# NCI-H23 lung = system: NCI-H23 lung
# SR leukemia = system: SR leukemia
# NCI-H226 lung = system: NCI-H226 lung
smiles,measurement,setting,value
C/C(=N\N=C\c1cc([N+](=O)[O-])ccc1Cl)c1ccc2c(c1)Nc1ccccc1S2,GI50,BT-549 breast,20.7 µM
same,TGI,BT-549 breast,> 100 µM
same,GI50,SK-MEL-28 melanoma,> 100 µM
same,TGI,SK-MEL-28 melanoma,> 100 µM
same,GI50,NCI/ADR-RES ovarian,17.9 µM
same,TGI,NCI/ADR-RES ovarian,65.5 µM
same,GI50,PC-3 prostate,38.4 µM
same,TGI,PC-3 prostate,> 100 µM
same,GI50,HCT-116 colon,3.36 µM
same,TGI,HCT-116 colon,15.3 µM
same,GI50,SK-MEL-2 melanoma,20.8 µM
same,TGI,SK-MEL-2 melanoma,83.1 µM
same,GI50,CAKI-1 renal,12.5 µM
same,TGI,CAKI-1 renal,27.7 µM
same,GI50,MDA-MB-231 breast,21.1 µM
same,TGI,MDA-MB-231 breast,63 µM
same,GI50,UACC-257 melanoma,23.6 µM
same,TGI,UACC-257 melanoma,> 100 µM
same,GI50,SK-OV-3 ovarian,14.9 µM
same,TGI,SK-OV-3 ovarian,45.1 µM
same,GI50,NCI-H460 lung,6.28 µM
same,TGI,NCI-H460 lung,21.4 µM
same,GI50,SF-539 CNS,16.9 µM
same,TGI,SF-539 CNS,35.2 µM
same,GI50,TK-10 renal,11.4 µM
same,TGI,TK-10 renal,24.9 µM
same,GI50,OVCAR-5 ovarian,28.4 µM
same,TGI,OVCAR-5 ovarian,> 100 µM
same,GI50,HOP-62 NSCLC,16.6 µM
same,TGI,HOP-62 NSCLC,39.8 µM
same,GI50,HOP-92 NSCLC,16.1 µM
same,TGI,HOP-92 NSCLC,89.5 µM
same,GI50,SW-620 colon,9.55 µM
same,TGI,SW-620 colon,24.5 µM
same,GI50,RXF 393 renal,16.6 µM
same,TGI,RXF 393 renal,94.5 µM
same,GI50,OVCAR-4 ovarian,3.12 µM
same,TGI,OVCAR-4 ovarian,11.8 µM
same,GI50,OVCAR-3 ovarian,11.3 µM
same,TGI,OVCAR-3 ovarian,24 µM
same,GI50,DU-145 prostate,34.4 µM
same,TGI,DU-145 prostate,> 100 µM
same,GI50,786-0 renal,12.4 µM
same,TGI,786-0 renal,27.6 µM
same,GI50,HCC-2998 colon,52.2 µM
same,TGI,HCC-2998 colon,> 100 µM
same,GI50,HS 578T breast,15 µM
same,TGI,HS 578T breast,58.3 µM
same,GI50,UACC-62 melanoma,29 µM
same,TGI,UACC-62 melanoma,> 100 µM
same,GI50,COLO 205 colon,18.3 µM
same,TGI,COLO 205 colon,> 100 µM
same,GI50,OVCAR-8 ovarian,12.2 µM
same,TGI,OVCAR-8 ovarian,35.8 µM
same,GI50,MDA-MB-468 breast,1.83 µM
same,TGI,MDA-MB-468 breast,18.6 µM
same,GI50,NCI-H522 lung,12.2 µM
same,TGI,NCI-H522 lung,41 µM
same,GI50,MOLT-4 leukemia,20.4 µM
same,TGI,MOLT-4 leukemia,> 100 µM
same,GI50,K-562 leukemia,16.8 µM
same,TGI,K-562 leukemia,> 100 µM
same,GI50,MDA-MB-435,22.9 µM
same,TGI,MDA-MB-435,> 100 µM
same,GI50,SNB-75 CNS,12.6 µM
same,TGI,SNB-75 CNS,33.4 µM
same,GI50,HL-60(TB) leukemia,24.2 µM
same,TGI,HL-60(TB) leukemia,> 100 µM
same,GI50,U251 CNS,8.36 µM
same,TGI,U251 CNS,23.9 µM
same,GI50,LOX IMVI melanoma,31.3 µM
same,TGI,LOX IMVI melanoma,> 100 µM
same,GI50,UO-31 renal,11.2 µM
same,TGI,UO-31 renal,25.4 µM
same,GI50,CCRF-CEM leukemia,11.4 µM
same,TGI,CCRF-CEM leukemia,> 100 µM
same,GI50,EKVX NSCLC,19.3 µM
same,TGI,EKVX NSCLC,79.8 µM
same,GI50,A498 renal,12.6 µM
same,TGI,A498 renal,27.6 µM
same,GI50,KM12 colon,35.8 µM
same,TGI,KM12 colon,> 100 µM
same,GI50,M14 melanoma,51.7 µM
same,TGI,M14 melanoma,> 100 µM
same,GI50,SNB-19 CNS,23.8 µM
same,TGI,SNB-19 CNS,> 100 µM
same,GI50,RPMI-8226 leukemia,20.6 µM
same,TGI,RPMI-8226 leukemia,> 100 µM
same,GI50,SF-268 CNS,26.3 µM
same,TGI,SF-268 CNS,> 100 µM
same,GI50,T-47D breast,4.3 µM
same,TGI,T-47D breast,25.8 µM
same,GI50,ACHN renal,2.87 µM
same,TGI,ACHN renal,8.59 µM
same,GI50,IGROV1 ovarian,23.6 µM
same,TGI,IGROV1 ovarian,> 100 µM
same,GI50,MCF7 breast,21.5 µM
same,TGI,MCF7 breast,> 100 µM
same,GI50,A549 NSCLC,7.56 µM
same,TGI,A549 NSCLC,31.8 µM
same,GI50,SK-MEL-5 melanoma,24.9 µM
same,TGI,SK-MEL-5 melanoma,> 100 µM
same,GI50,HT29 colon,26 µM
same,TGI,HT29 colon,> 100 µM
same,GI50,SF-295 CNS,13.5 µM
same,TGI,SF-295 CNS,35.1 µM
same,GI50,HCT-15 colon,19.2 µM
same,TGI,HCT-15 colon,> 100 µM
same,GI50,SN12C renal,6.86 µM
same,TGI,SN12C renal,28.5 µM
same,GI50,MALME-3M melanoma,19.1 µM
same,TGI,MALME-3M melanoma,> 100 µM
same,GI50,NCI-H23 lung,16.3 µM
same,TGI,NCI-H23 lung,45 µM
same,GI50,SR leukemia,13.5 µM
same,TGI,SR leukemia,81 µM
same,GI50,NCI-H226 lung,17.7 µM
same,TGI,NCI-H226 lung,> 100 µM
